N[C@@H](Cc1ccccc1)C(=O)O
solubility (mole fraction)
Details	283.15 K	288.15 K	293.15 K	298.15 K	303.15 K	308.15 K	313.15 K	318.15 K	323.15 K	328.15 K
in 1,4-dioxane	–	1.86e-05	2.37e-05	3.09e-05	3.5e-05	3.9e-05	4.53e-05	5.92e-05	8.28e-05	0.000118
in acetone	8.09e-05	0.000104	0.000131	0.000153	0.000176	0.000226	0.000293	0.00033	0.000375	–
in acetonitrile	7.9e-06	9.3e-06	1.12e-05	1.55e-05	1.8e-05	2.4e-05	3.67e-05	4.72e-05	5.69e-05	–
in ethanol	0.000125	0.000136	0.000151	0.000165	0.000177	0.000191	0.000208	0.000222	0.000231	–
in ethyl acetate	1.33e-05	1.49e-05	1.95e-05	2.06e-05	2.37e-05	3.38e-05	5.38e-05	9.29e-05	0.000194	–
in isobutanol	7.49e-05	7.77e-05	9.15e-05	0.000124	0.000158	0.000187	0.000224	0.000278	0.000323	–
in isopropanol	4.14e-05	5.16e-05	6.41e-05	7.29e-05	9.54e-05	0.00011	0.000122	0.00015	0.000178	–
in methanol	0.000742	0.000807	0.000866	0.000937	0.000996	0.00105	0.00112	0.00119	0.00126	–
in methyl acetate	4.3e-06	8.5e-06	1e-05	1.49e-05	1.93e-05	3.27e-05	4.41e-05	5.46e-05	6.4e-05	–
in n-butanol	5.9e-06	8.4e-06	9.8e-06	2.2e-05	3.48e-05	4.72e-05	5.85e-05	8.5e-05	0.000104	–
in n-propanol	2.83e-05	2.99e-05	3.34e-05	4.63e-05	5.58e-05	6.44e-05	8.96e-05	0.000141	0.000187	–
in water	0.00274	0.00289	0.00307	0.00321	0.00342	0.0036	0.00379	0.00404	0.00433	–

Source: BigSolDB 2.1
